Literature values as cited in paper PMC12144996 (Acta Pharmaceutica Sinica. B, 2025).

Tested on: SARS-CoV-2 variants of concern (VOCs)
Conditions: cited from earlier work

CC(C)C(=O)OC[C@H]1O[C@@](C#N)(c2ccc3c(N)ncnn23)[C@H](O)[C@@H]1O [ATV006]
Antiviral activity against SARS-CoV-2 variants of concern: potent antiviral activity
